In assay [1] the test system is M. tuberculosis PC 4793. In words: MIC against M. tuberculosis strains, agar dilution. It counts as cell-based, Mycobacterium tuberculosis. Conditions: S. No. 23 Mt-, Middle Brook 7H10 + OADC, 37° C., 14-21 days. (In general: In agar dilution the substance is mixed into plates at graded concentrations.)
Assay [2] deals with M. bovis ATCC 19210. It counts as cell-based. Conditions: S. No. 18 NTM, Middle Brook 7H10 + OADC, 37° C., 14-21 days.
For assay [3], the system named is M. tuberculosis ATCC. In words: MIC against M. tuberculosis strains, agar dilution. It counts as cell-based, Mycobacterium tuberculosis. Conditions: S. No. 03 Mt-, Middle Brook 7H10 + OADC, 37° C., 14-21 days.
The test system of assay [4] is M. avium intracellulare 1211/96. In words: MIC against MAC strains, agar dilution. Conditions: S. No. 13 Mai-5, M. avium intracellulare 1211/96; Middle Brook 7H10 + OADC, 37° C., 14-21 days. The format is cell-based.
The subject of assay [5] is M. avium intracellulare 559/97. Kind of assay: MIC against MAC strains, agar dilution. The format is cell-based. Conditions: S. No. 15 Mai-7, M. avium intracellulare 559/97; Middle Brook 7H10 + OADC, 37° C., 14-21 days.
Assay [6] has as its system M. tuberculosis SGPGI. In words: MIC against M. tuberculosis strains, agar dilution. It counts as cell-based, Mycobacterium tuberculosis. Conditions: S. No. 05 Mt-, Middle Brook 7H10 + OADC, 37° C., 14-21 days.
Assay [7] relates to M. avium intracellulare 4. In words: MIC against MAC strains, agar dilution. Conditions: S. No. 11 Mai-2, M. avium intracellulare 4; Middle Brook 7H10 + OADC, 37° C., 14-21 days. The format is cell-based.
For assay [8], the system named is M. intracellulare ATCC 35761. In words: MIC against MAC strains, agar dilution. It counts as cell-based. Conditions: S. No. 07 Mi-2, M. intracellulare ATCC 35761; Middle Brook 7H10 + OADC, 37° C., 14-21 days.
Assay [9] relates to M. avium intracellulare 19/97. In words: MIC against MAC strains, agar dilution. The format is cell-based. Conditions: S. No. 17 Mai-10, M. avium intracellulare 19/97; Middle Brook 7H10 + OADC, 37° C., 14-21 days.
The test system of assay [10] is M. tuberculosis M-149. Kind of assay: MIC against M. tuberculosis strains, agar dilution. The format is cell-based, Mycobacterium tuberculosis. Conditions: S. No. 15 Mt-, Middle Brook 7H10 + OADC, 37° C., 14-21 days.
Assay [11] deals with M. tuberculosis M-66. In words: MIC against M. tuberculosis strains, agar dilution. It counts as cell-based, Mycobacterium tuberculosis. Conditions: S. No. 08 Mt-, Middle Brook 7H10 + OADC, 37° C., 14-21 days.
In assay [12] the test system is M. tuberculosis V-591. In words: MIC against M. tuberculosis strains, agar dilution. It counts as cell-based, Mycobacterium tuberculosis. Conditions: S. No. 13 Mt-, Middle Brook 7H10 + OADC, 37° C., 14-21 days.
Assay [13] deals with M. avium intracellulare 540/96. In words: MIC against MAC strains, agar dilution. It counts as cell-based. Conditions: S. No. 12 Mai-4, M. avium intracellulare 540/96; Middle Brook 7H10 + OADC, 37° C., 14-21 days.
In assay [14] the test system is M. intracellulare B-78/3. Kind of assay: MIC against MAC strains, agar dilution. The format is cell-based. Conditions: S. No. 09 Mi-4, M. intracellulare B-78/3; Middle Brook 7H10 + OADC, 37° C., 14-21 days.
Assay [15] concerns M. tuberculosis M-164. Kind of assay: MIC against M. tuberculosis strains, agar dilution. The format is cell-based, Mycobacterium tuberculosis. Conditions: S. No. 10 Mt-, Middle Brook 7H10 + OADC, 37° C., 14-21 days.
Assay [16] deals with M. tuberculosis PC. In words: MIC against M. tuberculosis strains, agar dilution. It counts as cell-based, Mycobacterium tuberculosis. Conditions: S. No. 16 Mt-, Middle Brook 7H10 + OADC, 37° C., 14-21 days.
Assay [17] deals with M. avium intracellulare 356/97. In words: MIC against MAC strains, agar dilution. Conditions: S. No. 10 Mai-1, M. avium intracellulare 356/97; Middle Brook 7H10 + OADC, 37° C., 14-21 days. It counts as cell-based.

The values below come from patent US20060293307A1, “Oxazolidinone derivatives as antimicrobials” (priority 2002, published 2006).

The MIC is the smallest concentration in the dilution series that meets the test's criterion for growth inhibition. As to `C[C@@H]1CN(c2c(F)c(N)c3c(=O)c(C(=O)O)cn(C4CC4)c3c2F)C[C@H](C)N1` [SPAR], the MIC in assay [1] was 4.0 µg/mL; in [2], less than 0.12 µg/mL; in assay [3], “≦0.125 μg/ml”; in assay [4], 4.0 µg/mL; in assay [5], 2.0 µg/mL; in assay [6], 0.25 µg/mL. The MIC was 1.0 µg/mL in assay [7]; 2.0 µg/mL in [8]; 1.0 µg/mL in [9]; 2.0 µg/mL in [10]; 32 µg/mL in [11]; 2.0 µg/mL in assay [12]. Further, the MIC turned out to be 4.0 µg/mL in [13]; 2.0 µg/mL in assay [14]; 1.0 µg/mL in [15]; 2.0 µg/mL in assay [16]; 2.0 µg/mL in assay [17].
